# Data taken from patent US11896573B2, “Pharmaceutical compositions and pharmacokinetics of a gamma-hydroxybutyric acid derivative” (priority 2020, dated 2024).
# Experiment: Single ascending dose study, plasma pharmacokinetics of Compound (1) and GHB
# Type: in vivo, human
# Settings: fasted
# Experimental: The plasma concentrations of Compound (1) and GHB in plasma in healthy human subjects were measured using liquid chromatography tandem mass-spectroscopy and evaluated using PHOENIX™ WINNONLIN® version 8.1 (Pharsight Corporation, USA) and MICROSOFT® EXCEL® (Microsoft Corporation, USA).
# All randomized subjects who received Compound (1), with available pharmacokinetic (PK) data and without relevant deviations interfering with the PK evaluations, were included. Subjects who received only placebo were excluded from the PK population. In addition, the PK population was used for the summaries and analyses of all PK data.
# A randomized, double-blind, single-center, single ascending dose study was undertaken to evaluate the safety, tolerability, and pharmacokinetics of Compound (1) and GHB in healthy subjects.
# Compound (1) was administered to randomized healthy subjects at doses from 0.1 g to 7.25 g as an aqueous solution of Compound (1) in water. The subjects fasted for at least 10 hours overnight with clear liquids allowed prior to dosing and the subjects were fasted for 4 hours after dosing.
# Plasma samples were obtained at various times following oral administration and the plasma concentrations of Compound (1) and GHB were measured.
# [1] = Cohort 1 (0.10 g) single oral dose
# [2] = Cohort 2 (0.50 g) single oral dose
# [3] = Cohort 3 (1.50 g) single oral dose
# [4] = Cohort 4 (3.00 g) single oral dose
# [5] = Cohort 5 (4.50 g) single oral dose
# [6] = Cohort 6 (6.00 g) single oral dose
smiles,measurement,setting,value
"CC(C)[C@H](N)C(=O)OCCCC(=O)O [Compound (1), 4-((L-valyl)oxy)butanoic acid]","Compound (1) CL/F, Max",[1],554 L/h
same,"Compound (1) CL/F, Mean",[1],420 L/h
same,"Compound (1) CL/F, Median",[1],408 L/h
same,"Compound (1) CL/F, Min",[1],316 L/h
same,"Compound (1) plasma AUC0-inf, Max",[1],316 ng·h/mL
same,"Compound (1) plasma AUC0-inf, Min",[1],180 ng·h/mL
same,"Compound (1) plasma AUC0-tlast, Max",[1],315 ng·h/mL
same,"Compound (1) plasma AUC0-tlast, Min",[1],180 ng·h/mL
same,"Compound (1) plasma Cmax, Max",[1],669 ng/mL
same,"Compound (1) plasma Cmax, Min",[1],265 ng/mL
same,"Compound (1) plasma t1/2, Max",[1],0.92 h
same,"Compound (1) plasma t1/2, Min",[1],0.48 h
same,"Compound (1) CL/F, Max",[2],500 L/h
same,"Compound (1) CL/F, Mean",[2],400 L/h
same,"Compound (1) CL/F, Median",[2],396 L/h
same,"Compound (1) CL/F, Min",[2],309 L/h
same,"Compound (1) plasma AUC0-inf, Max",[2],1620 ng·h/mL
same,"Compound (1) plasma AUC0-inf, Min",[2],1000 ng·h/mL
same,"Compound (1) plasma AUC0-tlast, Max",[2],1610 ng·h/mL
same,"Compound (1) plasma AUC0-tlast, Min",[2],998 ng·h/mL
same,"Compound (1) plasma Cmax, Max",[2],2470 ng/mL
same,"Compound (1) plasma Cmax, Min",[2],1160 ng/mL
same,"Compound (1) plasma Tmax, Max",[2],1.50 h
same,"Compound (1) plasma t1/2, Max",[2],1.33 h
same,"Compound (1) plasma t1/2, Min",[2],0.71 h
same,"Compound (1) CL/F, Max",[3],959 L/h
same,"Compound (1) CL/F, Mean",[3],673 L/h
same,"Compound (1) CL/F, Median",[3],553 L/h
same,"Compound (1) CL/F, Min",[3],468 L/h
same,"Compound (1) plasma AUC0-inf, Max",[3],3210 ng·h/mL
same,"Compound (1) plasma AUC0-inf, Min",[3],1500 ng·h/mL
same,"Compound (1) plasma AUC0-tlast, Max",[3],4040 ng·h/mL
same,"Compound (1) plasma AUC0-tlast, Min",[3],1500 ng·h/mL
same,"Compound (1) plasma Cmax, Max",[3],5530 ng/mL
same,"Compound (1) plasma Cmax, Min",[3],2100 ng/mL
same,"Compound (1) plasma Tmax, Max",[3],1.50 h
same,"Compound (1) plasma t1/2, Max",[3],1.11 h
same,"Compound (1) plasma t1/2, Min",[3],0.97 h
same,"Compound (1) CL/F, Max",[4],545 L/h
same,"Compound (1) CL/F, Mean",[4],413 L/h
same,"Compound (1) CL/F, Median",[4],408 L/h
same,"Compound (1) CL/F, Min",[4],318 L/h
same,"Compound (1) plasma AUC0-inf, Max",[4],9430 ng·h/mL
same,"Compound (1) plasma AUC0-inf, Min",[4],5500 ng·h/mL
same,"Compound (1) plasma AUC0-tlast, Max",[4],9430 ng·h/mL
same,"Compound (1) plasma AUC0-tlast, Min",[4],5500 ng·h/mL
same,"Compound (1) plasma Cmax, Max",[4],15200 ng/mL
same,"Compound (1) plasma Cmax, Min",[4],7440 ng/mL
same,"Compound (1) plasma t1/2, Max",[4],1.54 h
same,"Compound (1) plasma t1/2, Min",[4],0.78 h
same,"Compound (1) CL/F, Max",[5],586 L/h
same,"Compound (1) CL/F, Mean",[5],416 L/h
same,"Compound (1) CL/F, Median",[5],389 L/h
same,"Compound (1) CL/F, Min",[5],353 L/h
same,"Compound (1) plasma AUC0-inf, Max",[5],12700 ng·h/mL
same,"Compound (1) plasma AUC0-inf, Min",[5],7670 ng·h/mL
same,"Compound (1) plasma AUC0-tlast, Max",[5],12700 ng·h/mL
same,"Compound (1) plasma AUC0-tlast, Min",[5],7660 ng·h/mL
same,"Compound (1) plasma Cmax, Max",[5],16700 ng/mL
same,"Compound (1) plasma Cmax, Min",[5],6790 ng/mL
same,"Compound (1) plasma t1/2, Max",[5],1.50 h
same,"Compound (1) plasma t1/2, Min",[5],0.83 h
same,"Compound (1) CL/F, Max",[6],423 L/h
same,"Compound (1) CL/F, Mean",[6],340 L/h
same,"Compound (1) CL/F, Median",[6],334 L/h
same,"Compound (1) CL/F, Min",[6],232 L/h
same,"Compound (1) plasma AUC0-inf, Max",[6],25800 ng·h/mL
same,"Compound (1) plasma AUC0-inf, Min",[6],14200 ng·h/mL
same,"Compound (1) plasma AUC0-tlast, Max",[6],25800 ng·h/mL
same,"Compound (1) plasma AUC0-tlast, Min",[6],14200 ng·h/mL
same,"Compound (1) plasma Cmax, Max",[6],22900 ng/mL
same,"Compound (1) plasma Cmax, Min",[6],13200 ng/mL
same,"Compound (1) plasma t1/2, Max",[6],1.64 h
same,"Compound (1) plasma t1/2, Min",[6],0.79 h
